In article PMC5999327 (Organic letters, 2018):

Assays:
Cal27 cells [1] = assay: western blotting of α-tubulin and histone H3 acetylation in Cal27; format: cell-based, human; conditions: western blot, Cal27, compared to control
Cal27 cells [2] = assay: whole cell HDAC assay with Boc-Lys; format: cell-based; conditions: Homo sapiens, CAL-27, read-out: HDAC (Cal27) IC50
Cal27 cells [3] = assay: MTT cytotoxicity assay; format: cell-based; conditions: Homo sapiens, CAL-27, read-out: MTT (Cal27) IC50
HDAC1 = HDAC1 (Homo sapiens, UniProt Q13547); assay: biochemical HDAC assay with ZMAL substrate, HDAC1; conditions: read-out: HDAC1 IC50
Chain of HDAC1 (Q13547 whole entry): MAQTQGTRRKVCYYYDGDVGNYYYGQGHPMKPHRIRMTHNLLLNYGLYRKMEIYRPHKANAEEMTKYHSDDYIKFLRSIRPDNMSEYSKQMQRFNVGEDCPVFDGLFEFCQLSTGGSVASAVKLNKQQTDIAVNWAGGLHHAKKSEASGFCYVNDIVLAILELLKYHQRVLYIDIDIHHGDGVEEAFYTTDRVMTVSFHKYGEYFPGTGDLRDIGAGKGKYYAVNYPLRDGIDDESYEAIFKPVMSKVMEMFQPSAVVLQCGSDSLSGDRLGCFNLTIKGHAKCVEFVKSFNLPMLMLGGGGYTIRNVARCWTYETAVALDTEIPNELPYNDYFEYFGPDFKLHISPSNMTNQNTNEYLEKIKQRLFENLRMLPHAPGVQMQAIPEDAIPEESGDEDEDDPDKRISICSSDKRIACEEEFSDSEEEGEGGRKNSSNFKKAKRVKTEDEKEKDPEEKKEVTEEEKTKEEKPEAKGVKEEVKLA

CN1CCc2c(c3ccccc3n2Cc2ccc(C(=O)NO)cc2)C1 [Tubastatin A]
acetylation of α-tubulin (Cal27 cells [1]): preferential hyperacetylation of α-tubulin | IC50 (Cal27 cells [2]): 11.4 µM | IC50 (Cal27 cells [3]): 5.34 µM

CCCCN(Cc1ccc(C(=O)NO)cc1)C(=O)Nc1ccccc1 [Nexturastat A]
IC50 (Cal27 cells [2]): 5.87 µM | IC50 (Cal27 cells [3]): 7.75 µM

O=C(CCCCCCC(=O)Nc1ccccc1)NO [vorinostat]
acetylation of histone H3 (Cal27 cells [1]): increase in acetylation | acetylation of α-tubulin (Cal27 cells [1]): increase in acetylation

O=C(NO)c1ccc(CC(=O)N(CCO)c2ccccc2)cc1 [HPOB]
IC50 (HDAC1): 2.1 µM
